According to patent US20260191852A1, “COMBINATION OF SUBSTITUTED 2,4 DIAMINO-QUINOLINE COMPOUNDS AND MEK INHIBITORS FOR USE IN THE TREATMENT OF LIVER CANCERS” (GENFIT, priority 2022, published 2026):
Where a name gives a salt, the structure may show the parent alone. Read-outs that look alike come from different tables or passages of the source.

Columns and labels:
[1] = tested on: intrahepatic cholangiocarcinoma cell line HuCCT1 (KRAS G12D)
Protocol: (§1) Cell culture: HuCCT1 cell line harboring KRAS G12D mutation (JCRB Cell Bank #JCRB0425) was maintained in RPMI medium (Dutscher #L0498-500) containing 1% penicillin streptomycin (Dutscher #P06-07100) and 10% fetal bovine serum (Dutscher #SV30160.03C) and were cultured at 37° C. with 5% CO2 in humidified cells incubator.
(§2) HuCCT1 cells were plated at 4.10^3 cells per well in Greiner Bio-one pClear® P96 well plates (Dutscher #655098) with 80 μL of culture media. […] Cell viability was assessed 72 hours post molecular treatment by CellTiter-Glo® luminescent cell viability assay (Promega #G7573) according to the manufacturer protocol and using an Infinity F200 Pro luminometer (Tecan). […] IC50 values were determined as the dose of compound required to reduce luminescent values to 50% of the reference signal obtained for untreated cell cultures. Raw data were analyzed using GraphPad Prism Software v9.4 (GraphPad Software, Inc. La Jolla, CA). For all experiments, analyzed data are shown as mean of triplicate and four independent experiments.

[2] = tested on: intrahepatic cholangiocarcinoma cell line HuCCT1 (KRAS G12D); assay: HuCCT1 cell viability assay (CellTiter-Glo), single compounds, 72 hours; conditions: for IC50: Homo sapiens, HuCCT-1, 72 h, read-out: Cell Viability assay IC50
Protocol: as §1, §2

[3] = tested on: intrahepatic cholangiocarcinoma cell line HuCCT1 (KRAS G12D); assay: Combination effect of binary drug-drug associations on HuCCT1 cell viability, Loewe additivity model (SynergyFinder); assay type: cell-based; conditions: growth inhibition of HuCCT1
Protocol: The HuCCT1 cell viability assay with binary drug-drug association was performed as described in example 1. The drug-drug binary associations of compounds 2-2+Trametinib and HCQ+Trametinib were tested in a checkerboard fashion in Greiner Bio-one pClear® 96-well plates (Dutscher #655098). The concentration ranges were selected nearby and surrounding the IC50 values of each individual compound. Compound 2-2 in combination with Trametinib was tested at 1.28 μM, 1.6 μM, 2.0 μM, 2.5 μM and 3.125 μM. HCQ [747-36-4] in combination with Trametinib was tested at 15 μM, 20 μM, 30 μM, 45 μM, 60 μM. […] The combination effects of both binary drug-drug association compound 2-2+Trametinib and HCQ+Trametinib were analyzed with two softwares: MacSynergy™ II (1) and SynergyFinder. […]
The combination effects of the drug-drug associations of compound 2-2+Trametinib (Table 2) and HCQ+Trametinib (Table 3) were evaluated according to the Loewe additivity model using SynergyFinder for their respective capacities to inhibit the growth of intra-hepatic cholangiocarcinoma cell line HuCCT1.
The HuCCT1 cell viability assay with binary drug-drug association was performed as described in example 1. […] The combination effects of both binary drug-drug association compound 2-2+Cobimetinib and HCQ+Cobimetinib were analyzed with two softwares: MacSynergy™ II (1) and SynergyFinder (2). […]

[4] = tested on: intrahepatic cholangiocarcinoma cell line HuCCT1 (KRAS G12D); assay: Combination effect of binary drug-drug associations on HuCCT1 cell viability, Bliss independence model (MacSynergy II); assay type: cell-based; conditions: growth inhibition of HuCCT1
Protocol: The HuCCT1 cell viability assay with binary drug-drug association was performed as described in example 1. The drug-drug binary associations of compounds 2-2+Trametinib and HCQ+Trametinib were tested in a checkerboard fashion in Greiner Bio-one pClear® 96-well plates (Dutscher #655098). The concentration ranges were selected nearby and surrounding the IC50 values of each individual compound. Compound 2-2 in combination with Trametinib was tested at 1.28 μM, 1.6 μM, 2.0 μM, 2.5 μM and 3.125 μM. HCQ [747-36-4] in combination with Trametinib was tested at 15 μM, 20 μM, 30 μM, 45 μM, 60 μM. Trametinib (Selleckchem #S2673, [871700-17-3]) in combination with compound 2-2 or in combination with HCQ was tested in both cases at 0.005 μM, 0.03 μM, 6.0 μM, 15 μM, 30 μM, 60 μM, 90 μM. The combination effects of both binary drug-drug association compound 2-2+Trametinib and HCQ+Trametinib were analyzed with two softwares: MacSynergy™ II (1) and SynergyFinder. (2) MacSynergy™ II was used to analyze the combination effect according to the Bliss independence model which assumes probabilistic statistical independence between the combined compounds.(3) The main assumption of the Bliss independence principle is that two or more combined drugs act independently from each other with distinct mode of action. SynergyFinder was used to analyze the combination effect according to the Loewe additivity model which is based on its principle of a sham drug-drug combination which assumes no interaction when a compound is combined with itself.(4)
The combination effects of the drug-drug associations of compound 2-2+Trametinib and hydroxychloroquine+Trametinib were evaluated according to the Bliss independence model using MacSynergy™ II for their respective capacities to inhibit the growth of intrahepatic cholangiocarcinoma cell line HuCCT1 (Table 4).
The HuCCT1 cell viability assay with binary drug-drug association was performed as described in example 1. The binary drug-drug associations of compounds 2-2+Cobimetinib and HCQ+Cobimetinib were tested in a checkerboard fashion in Greiner Bio-one pClear® 96-well plates (Dutscher #655098). The concentration ranges were selected nearby and surrounding the IC50 values of each individual compound. Compound 2-2 in combination with Cobimetinib was tested at 1.28 μM, 1.6 μM, 2.0 μM, 2.5 μM and 3.125 μM. HCQ [747-36-4] in combination with Cobimetinib was tested at 15 μM, 20 μM, 30 μM, 45 μM, 60 μM. Cobimetinib (Selleckchem #S8041, [934660-93-2]) in combination with compound 2-2 or in combination with HCQ was tested in both cases at 0.10 μM, 1.0 μM, 10 μM, 30 μM, 60 μM, 80 μM, 100 μM. The combination effects of both binary drug-drug association compound 2-2+Cobimetinib and HCQ+Cobimetinib were analyzed with two softwares: MacSynergy™ II (1) and SynergyFinder (2). […]
The combination effects of the binary drug-drug associations of compound 2-2+Cobimetinib and hydroxychloroquine+Cobimetinib were evaluated according to the Bliss independence model using MacSynergy™ II for their respective capacities to inhibit the growth of intrahepatic cholangiocarcinoma cell line HuCCT1 (Table 7).

| Structure (SMILES) | cytotoxic activity against HuCCT1 [1] | IC50 [2] [µM] | combination effect when associated with Cobimetinib, Loewe model [3] | combination effect when associated with Cobimetinib, Bliss model [4] | combination effect when associated with Trametinib [4] | cytotoxic activity against HuCCT1 ([2]; HuCCT1, 72 hours) | combination effect when associated with a MEK inhibitor (e.g., Trametinib, Cobimetinib), Bliss independence model [4] |
| --- | --- | --- | --- | --- | --- | --- | --- |
| O=C(c1ccc(F)c(F)c1Nc1ccc(I)cc1F)N1CC(O)([C@@H]2CCCCN2)C1 [Cobimetinib] | dose-response cytotoxic activity | 1.2 ± 0.8 | – | – | – | – | – |
| CCN(CCO)CCCC(C)Nc1ccnc2cc(Cl)ccc12 (stereo not drawn) [Hydroxychloroquine, hydroxychloroquine sulfate] | dose-response cytotoxic activity | 27.2 ± 1.2 | overall additive effect | minor synergy without significant impact in vivo | only an additive effect | – | – |
| CC(C)(C)NC1CCN(c2cc(NCc3ccc(Cl)cc3)nc3ccccc23)CC1 [Compound 2-2, 2-(4-chlorobenzylamino)-4-(4-tert-butylaminopiperidin-1-yl)-quinoline] | – | 2.2 ± 0.2 | overall additive effect | significant synergy combination effect | significant synergy combination effect | dose-response cytotoxic activity | significant synergy combination effect |
| CC(=O)Nc1cccc(-n2c(=O)n(C3CC3)c(=O)c3c(Nc4ccc(I)cc4F)n(C)c(=O)c(C)c32)c1 [Trametinib] | dose-response cytotoxic activity | 0.31 ± 0.26 | – | – | – | – | – |
